Ends that are not written are not given here.
How the values were obtained:
[1] = test system: S. aureus ST1065; test: Time-kill assay; assay type: cell-based; conditions: for time to complete killing: peptide at two-fold above the MIC (MIC 6.25 µM), ∼2–3 10^6 cfu/mL in PBS, two experiments in triplicates
Procedure: (§1) The time-kill kinetics of phylloseptins-S against the Gram-negative bacteria E. coli ML-35p and the Gram-positive strain S. aureus ST1065 were evaluated as previously described with a dose of peptide corresponding to the MIC and two-fold above the MIC. Two experiments were realized in triplicates.
(§2) Figure 4 Time-kill curves of PLS-S1 (S1), -S2 (S2), and -S4 (S4). […] Controls correspond to bacteria incubated in PBS without peptide. The data are the means ± S.E.M. of two experiments carried out in triplicates.

[2] = test system: S. aureus ST1065; test: Permeabilization of the cytoplasmic membrane (ONPG hydrolysis); assay type: cell-based; conditions: ONP production at 405 nm from ONPG; compared with 10 µM dermaseptin B2 as positive control
Procedure: (§3) PLS-induced permeabilization of the cytoplasmic plasma membranes of E. coli ML-35p and S. aureus ST1065 was measured by the rate of production of o-nitrophenol (ONP) at 405 nm, following hydrolysis of o-nitrophenyl β-D-galactopyranoside (ONPG) by β-galactosidase. Dermaseptin B2 (10 µM) and PBS were used as positive and negative controls, respectively.
(§4) PLS-induced permeabilization of the cytoplasmic membranes of S. aureus ST1065 and E. coli ML-35p was analyzed by incubating the bacteria, which express β-galactosidase constitutively, with different concentrations of the peptides (S. aureus ST1065: PLS-S1, -S2, and -S4; E. coli ML-35p: PLS-S2 and -S4) and measuring the time-dependent hydrolysis of the small chromogenic substrate o-nitrophenyl-β-D-galactopyranoside (ONPG) into o-nitrophenol (ONP) by cytoplasmic β-galactosidase (Fig. 5). The three peptides permeabilized the bacterial cytoplasmic membrane with increasing severity according to the time and the peptide concentration. […] To investigate the mechanism of permeabilization, E. coli ML-35p were incubated with PLS-S2 (30 and 100 µM) and PLS-S4 (25 and 100 µM) for 60 min and β-galactosidase activity was measured after removing bacteria by centrifugation and adding ONPG to the supernatant.
(§5) Figure 5 Kinetics of the cytoplasmic membrane leakage of E. coli ML-35p and S. aureus ST1065 after incubation with different concentrations of active phylloseptins-S. The membrane leakage was determined by measuring the production of o-nitrophenol at 405 nm following hydrolysis of ONPG by the cytoplasmic bacterial β-galactosidase. Data are expressed as the mean ± S.E.M of two experiments carried out in triplicates after subtraction of the negative control values (w/o peptide) from the test values. Control panels display the kinetics obtained without peptide (negative control) and with 10 µM dermaseptin B2 (Drs B2, positive control). For E. coli ML-35p, the extracellular release of β-galactosidase was also measured as the production of o-nitrophenol at 405 nm after incubation (60 min) of E. coli cells with PLS-S2 (30 and 100 µM) and PLS-S4 (25 and 100 µM), removing of bacteria by centrifugation and adding ONPG to the supernatant. The negative (w/o peptide) and positive (10 µM Drs B2) controls are indicated for comparison. Results are expressed as the mean ± S.E.M of one representative experiment performed in triplicates.

[3] = Circular dichroism spectroscopy in SDS micelles; assay type: physicochemical; conditions: CD, peptide 30 µM in 80 mM SDS
Procedure: The far-ultraviolet circular dichroism (CD) spectra were recorded as described. Phylloseptins-S (30 µM) were solubilized either in 80 mM sodium dodecyl sulfate (SDS) or in phosphate-buffered saline (PBS: 10 mM phosphate, pH 7.3) containing 1 mg/mL of large unilamellar vesicles (LUVs) of 1,2-dimyristoyl-sn-glycero-3-phosphocholine (DMPC) and 1,2-dimyristoyl-sn-glycero-3-phosphoglycerol (DMPG) (3∶1 mol/mol). DMPC and DMPG were purchased from Avanti Polar Lipids, Inc. Each spectrum was the average of four scans. CD measurements are reported as Δ/n, where Δ is the dichroic increment and n is the number of residues in the peptide.
Figure 6 Circular dichroism spectra of synthetic phylloseptins-S (30 µM). (A) DMPC/DMPG (3∶1) large unilamellar vesicles in PBS (1 mg/mL). (B) 80 mM SDS. CD measurements are reported as the dichroic increment (Δε) per residue.

[4] = test system: Escherichia coli; conditions: cited from earlier work
Text: The 16–19 amino acid residue phylloseptins (PLSs) are a new emerging family of cationic antimicrobial peptides that belong to the dermaseptin superfamily, and whose members have been isolated from various genera of the Phyllomedusinae subfamily (Agalychnis, Phasmahyla, and Phyllomedusa), [10]–[16]. Like the archetypal dermaseptins (sensu stricto), these peptides seem to occur in multiple paralogous forms in each species with small differences in amino acid composition. Although only a few of these peptides were properly tested against various microorganisms, significant differences i ...

[5] = test system: E. coli ML-35p; test: Time-kill assay; assay type: cell-based; conditions: MIC (25 µM) and two-fold above the MIC, in PBS; two experiments in triplicates
Procedure: as §1, §2

[6] = test system: E. coli ML-35p; test: Permeabilization of the cytoplasmic membrane (ONPG hydrolysis); assay type: cell-based; conditions: ONP production at 405 nm from ONPG; compared with 10 µM dermaseptin B2 as positive control
Procedure: as §3, §4, §5

[7] = test system: E. coli ML-35p; test: Extracellular release of β-galactosidase; assay type: cell-based; conditions: 60 min incubation; PLS-S2 30 and 100 µM, PLS-S4 25 and 100 µM, dermaseptin B2 10 µM; ONPG added to supernatant
Procedure: as §4
Figure 5 Kinetics of the cytoplasmic membrane leakage of E. coli ML-35p and S. aureus ST1065 after incubation with different concentrations of active phylloseptins-S. The membrane leakage was determined by measuring the production of o-nitrophenol at 405 nm following hydrolysis of ONPG by the cytoplasmic bacterial β-galactosidase. […] Results are expressed as the mean ± S.E.M of one representative experiment performed in triplicates.

| Substance | time to complete killing [1] | permeabilization of the cytoplasmic membrane (in words) [2] | helix content [3] | MIC [4] | killing kinetics (in words) [5] | killing kinetics (in words) ([1]; compared with PLS-S1 and -S2, MIC and two-fold above the MIC, in PBS) | permeabilization of the cytoplasmic membrane (in words) [6] | extracellular release of β-galactosidase (in words) [7] |
| --- | --- | --- | --- | --- | --- | --- | --- | --- |
| FLSLIPHIVSGVASIAKHF-NH2 [PLS-S1] | ≤ 5 min | as efficient as with dermaseptin-B2 | 96% | 80 µM | – | – | – | – |
| FLSMIPHIVSGVAALAKHL-NH2 [PLS-S4] | – | as efficient as with dermaseptin-B2 | 59% | – | Almost similar rapid killing kinetics | slower | as efficient as with dermaseptin-B2 | dose-dependent release of β-galactosidase |
| FLSLIPHIVSGVASLAKHF-NH2 [PLS-S2] | ≤ 5 min | as efficient as with dermaseptin-B2 | 65% | – | Almost similar rapid killing kinetics | – | lower efficiency | dose-dependent release of β-galactosidase |

From paper PMC3742671, “Structure, Antimicrobial Activities and Mode of Interaction with Membranes of Bovel Phylloseptins from the Painted-Belly Leaf Frog, Phyllomedusa sauvagii” (PLoS ONE, 2013)
